{"source": "patent US20120028917A1", "about": "“Use Of N-(4-((3-(2-Amino-4-Pyrimidinyl)-2-Pyridinyl)Oxy)Phenyl)-4-(4-Methyl-2-Thienyl)-1-Phthalazinamine In The Treatment Of Antimitotic Agent Resistant Cancer” (Amgen Inc., priority 2009, published 2012)", "key": {"MCF-7": {"tested_on": "MCF-7", "assay": "Cellular EC50, additional cell lines (Table 6-B)", "type": "cell-based, human", "details": "Homo sapiens, MCF7; MCF-7, Breast", "description": "(§1) All high-content cell assays were performed on an ArrayScan VTi HCS Reader (Cellomics). Tumor cell lines were treated with AMG 900, AZD1152, MK-0457, or PHA-739358 (concentration range varied based on potency). The cells were prepared for intracellular staining with an anti-p-histone H3 Ser^10 antibody as previously described (1). Detection was performed with an anti-rabbit IgG-alexa-568 antibody and DAPI. The cellular levels of p-histone H3 were analyzed using Target Activation V2 algorithm (Cellomics) to determine the percentage of positive cells. For the imaging assays, the concentration-response curves and corresponding IC50 and EC50 values were calculated using the percentage of cells affected versus the DMSO control.\n(§2) Tumor cells were treated with AMG 900, AZD1152, MK-0457, or PHA-739358 (range concentration varied based on potency) for 24 hours and processed for cell-cycle analysis (DNA staining only) as previously described (1). Cells were analyzed on a LSRII flow cytometer using BD FACS Diva software. The concentration-response curves and corresponding EC50 values were calculated using the percentage of cells with ≧4N DNA content versus the DMSO control."}, "HCT15": {"tested_on": "HCT15", "assay": "Cellular EC50, additional cell lines (Table 6-B)", "type": "cell-based, human", "details": "Homo sapiens, HCT-15, Colon, P-gp+", "description": "as §1, §2"}, "RPMI8226": {"tested_on": "RPMI8226", "assay": "≧4N DNA content assay (flow cytometry)", "type": "cell-based, human", "details": "Homo sapiens", "description": "as §2"}, "U226-B1": {"tested_on": "U226-B1", "assay": "≧4N DNA content assay (flow cytometry)", "type": "cell-based, human", "details": "Homo sapiens; U226-B1, BCRP −; 24 hours", "description": "as §2"}, "[1]": {"tested_on": "MDA-MB-231 PTX paclitaxel resistant", "assay": "p-histone H3 fluorescence-based cell imaging assay", "set-up": "species or system human", "details": "Homo sapiens", "description": "as §1"}, "MES-SA parental": {"tested_on": "MES-SA parental", "assay": "p-histone H3 fluorescence-based cell imaging assay", "set-up": "species or system human", "details": "Homo sapiens, P-gp −", "description": "as §1"}, "[2]": {"tested_on": "MES-SA-Dx5 doxorubicin resistant", "assay": "p-histone H3 fluorescence-based cell imaging assay", "set-up": "species or system human", "details": "Homo sapiens", "description": "as §1"}, "MDA-MB-231 parental": {"tested_on": "MDA-MB-231 parental", "assay": "p-histone H3 fluorescence-based cell imaging assay", "set-up": "species or system human", "details": "Homo sapiens, P-gp −", "description": "as §1"}, "[3]": {"tested_on": "NCI-H460 PTX paclitaxel resistant", "assay": "p-histone H3 fluorescence-based cell imaging assay", "set-up": "species or system human", "details": "Homo sapiens", "description": "as §1"}, "NCI-H460 parental": {"tested_on": "NCI-H460 parental", "assay": "p-histone H3 fluorescence-based cell imaging assay", "set-up": "species or system human", "details": "Homo sapiens, P-gp −", "description": "as §1"}, "[4]": {"tested_on": "multiple human cancer xenograft models", "assay": "Xenograft panel, Example 3 (summary)", "type": "in vivo, athymic nude mice", "details": "all xenograft models tested; oral 3.75, 7.5 or 15 mg/kg BID 2 consecutive days per week or 3 mg/kg BID everyday", "description": "(§3) To investigate whether AMG 900-induced suppression of aurora kinase activity inhibits cell proliferation, the antiproliferative efficacy of AMG 900 was evaluated in-vivo in multiple human cancer xenograft models, including breast, colon, leukemia, lung, pancreatic, and uterine cancer models, grown in athymic nude mice. Mice were administered AMG 900 orally at 3.75, 7.5, or 15 mg/kg BID for 2 consecutive days per week or 3 mg/kg BID everyday for the duration of the study beginning when tumors were established. The reagents, solutions, equipment, formulation of AMG 900, tumor volume measurements and calculations were generally as described in Example 4 below."}, "HCT116 parental": {"tested_on": "HCT116 parental", "assay": "≧4N DNA content assay (FIG. 6-A)", "type": "cell-based", "details": "Homo sapiens, HCT-116, 24 hours, read-out: cellular ≧4N DNA content EC50", "description": "as §2\n(§4) HCT116 cell lines were treated with increasing concentrations of AMG 900 or AZD1152 for 24 hours. Flow cytometry was used to assess the accumulation of cells with ≧4N DNA content expressed as a percentage of the DMSO-treated control (POC). The concentration-response curves and calculated EC50 values were determined from two independent experiments (bars, ±SD)."}, "SNU499": {"tested_on": "SNU499", "assay": "Cellular EC50, additional cell lines (Table 6-B)", "type": "cell-based", "details": "Homo sapiens, Liver, P-gp+", "description": "as §1, §2"}, "769P": {"tested_on": "769P", "assay": "Cellular EC50, additional cell lines (Table 6-B)", "type": "cell-based", "details": "Homo sapiens, Kidney, P-gp+", "description": "as §1, §2"}, "MES-SA Dx5 xenograft": {"tested_on": "MES-SA Dx5 xenograft", "assay": "Xenograft tumor growth inhibition (Example 3)", "type": "in vivo, athymic nude mice", "description": "as §3\nThe effect of AMG 900 was tested on the multidrug resistant cell line MES-SA Dx5 grown in vivo as a tumor xenograft. Mice were administered AMG 900 orally at 15 mg/kg BID for 2 consecutive days per week or 3.0 mg/kg BID everyday for the duration of the study. Dosing was initiated when tumors were established (10 days after tumor implantation).\nMES-SA Dx5, multi-drug resistant, cells (2×10^6) were injected subcutaneously in the right flank of female athymic nude mice. Tumors were measured twice per week. Treatment began on day 10 when the tumors were ˜100 mm^3. […] P-values correspond to statistical difference between groups treated with vehicle and AMG 900 determined by RMANOVA followed by Dunnett's post-hoc test. […]"}, "HCT116 AZD1152-resistant": {"tested_on": "HCT116 AZD1152-resistant", "assay": "≧4N DNA content assay (FIG. 6-A)", "type": "cell-based", "details": "Homo sapiens, HCT-116; HCT116 AZD1152-resistant subline; 24 hours; read-out: cellular ≧4N DNA content EC50", "description": "Tumor cell lines were obtained from the American Type Culture Collection (ATCC) unless otherwise specified. The MDA-MB-231-PTX and NCI-H460-PTX cell lines were established by growing the cells in the presence of increasing concentrations of paclitaxel over a period of 6 months. The HCT116 AZD1152-resistant cell line was established by growing the cells in the presence of AZD1152 at 80 nmol/L.\nas §2, §4"}}, "note": "Read-outs that look alike come from different tables or passages of the source.", "data": [{"smiles": "Cc1csc(-c2nnc(Nc3ccc(Oc4ncccc4-c4ccnc(N)n4)cc3)c3ccccc23)c1", "note": "[AMG 900, N-(4-((3-(2-amino-4-pyrimidinyl)-2-pyridinyl)oxy)phenyl)-4-(4-methyl-2-thienyl)-1-phthalazinamine]", "values": [{"measurement": "EC50", "setting": "MCF-7", "value": 1, "unit": "nM"}, {"measurement": "EC50", "setting": "HCT15", "value": 2, "unit": "nM"}, {"measurement": "EC50", "setting": "RPMI8226; RPMI-8226, RPMI8226, BCRP +, 24 hours, read-out: ≧4N DNA Content assay, EC50 value", "value": 3, "unit": "nM"}, {"measurement": "EC50", "setting": "RPMI8226; RPMI-8226**, Multiple Myeloma, P-gp− and/or BCRP+, read-out: Cellular EC50", "value": 3, "unit": "nM"}, {"measurement": "EC50", "setting": "U226-B1", "value": 2, "unit": "nM"}, {"measurement": "EC50", "setting": "[1]; MDA-MB-231-PTX*, Breast, P-gp+, read-out: Cellular EC50", "value": 3, "unit": "nM"}, {"measurement": "IC50", "setting": "[1]; MDA-MB-231 PTX paclitaxel resistant, P-gp +", "value": 3, "unit": "nM"}, {"measurement": "IC50", "setting": "MES-SA parental", "value": 3, "unit": "nM"}, {"measurement": "EC50", "setting": "[2]; MES-SA Dx5*, Uterine, P-gp+, read-out: Cellular EC50", "value": 2, "unit": "nM"}, {"measurement": "IC50", "setting": "[2]; MES-SA-Dx5 doxorubicin resistant, P-gp +", "value": 2, "unit": "nM"}, {"measurement": "IC50", "setting": "MDA-MB-231 parental", "value": 2, "unit": "nM"}, {"measurement": "EC50", "setting": "[3]; NCI-H460-PTX*, Lung, P-gp+, read-out: Cellular EC50", "value": 3, "unit": "nM"}, {"measurement": "IC50", "setting": "[3]; NCI-H460 PTX paclitaxel resistant, P-gp +", "value": 3, "unit": "nM"}, {"measurement": "IC50", "setting": "NCI-H460 parental", "value": 3, "unit": "nM"}, {"measurement": "tumor growth vs vehicle control", "setting": "[4]", "value": "significantly inhibited tumor growth"}, {"measurement": "EC50", "setting": "HCT116 parental", "value": 2, "unit": "nM"}, {"measurement": "EC50", "setting": "SNU499", "value": 2, "unit": "nM"}, {"measurement": "EC50", "setting": "769P", "value": 4, "unit": "nM"}, {"measurement": "% TGI (tumor growth inhibition)", "setting": "MES-SA Dx5 xenograft; MES-SA Dx5, Uterine, oral BID, best of intermittent or continuous dose schedule", "value": 73, "unit": "%"}, {"measurement": "tumor growth vs vehicle control", "setting": "MES-SA Dx5 xenograft; MES-SA Dx5, 15 mg/kg BID 2 consecutive days per week and 3.0 mg/kg BID everyday, p<0.0001", "value": "statistically significant tumor growth inhibition"}, {"measurement": "EC50", "setting": "HCT116 AZD1152-resistant", "value": 5, "unit": "nM"}]}]}
